Read-outs that look alike come from different tables or passages of the source.
Key:
thymocytes = test: Cytoprotection of mouse thymocytes from dexamethasone-induced apoptosis (PI/DiOC6 flow cytometry); type: cell-based, C57Bl/6 mice; conditions: Thymocyte
Experimental: Thymocytes were harvested from young C57Bl/6 mice and cultured at 37° C. in 5% CO2 in RPMI 1640 containing 10% FBS, 1% Penicillin/Streptomycin (Gibco BRL, Rockville, Md.). Thymocytes were plated at a density of 10^7 cells/mL and pre-incubated with 5-10 μM of test compounds, 1, 2, 4, and 11 (from 10 mM
[drawing 8] stock in DMSO) for 30 minutes before induction of apoptosis. Apoptosis was induced with 5 μM dexamethasone or by exposure to 6 Gy gamma radiation. After 6 hours, cell apoptosis was assayed by propidium iodide (PI) and 3,3′ dihexyloxacarbocyanine iodide (DiOC6) staining. The cells were removed from the plate and incubated for 30 minutes in medium with 40 nM DiOC6 and 5 μg/mL PI and then analyzed by flow cytometry in a FACS caliber (Beckton-Dickinson, San Jose, Calif.). Viable cells had high DiOC6 (FL-1) and low PI (FL-3), whereas apoptotic cells had low DiOC6 (FL-1) and […]. To evaluate the IC50s the thymocytes were pre-exposed to graded concentrations of selected compounds for 30 min and then apoptosis was induced with 5 μM dexamethasone. After 6 hours the cells were harvested and stained as above. The results are illustrated in FIGS. 1 and 2 IC50 Determination
The concentration (IC50) of each compound that inhibited dexamethasone-induced cell death by 50% was determined by nonlinear regression fitting of the data to a one-site model. Pseudo Hill slopes were determined by nonlinear regression fit of the data to a sigmoidal dose-response equation (variable slope): % viability=minimum %/viability+(maximum−minimum % viability)/[1+10(log IC50−X)^n], where X is the logarithm of inhibitor concentration, and n is the pseudo Hill slope and the maximum and minimum % viability were experimentally determined after dexamethasone exposure and drug treatment. IC50 values and 95% confidence intervals (CI) were derived from the sigmoid fits to the percent control transformed data shown using GraphPad Prism version 4.0b for Macintosh (GraphPad Software, San Diego, Calif.).

cells = cells pre-incubated with compound, then exposed to γ-radiation; cited from earlier work
[1] = mice; cited from earlier work
[2] = 5 μM dexamethasone, 30 min pre-incubation, 6 hours, 95% CI in parentheses, read-out: EC50, in vitro cytoprotection activity
[3] = read-out: EC50, cytoprotective activity following in vitro dexamethasone treatment of mouse thymocytes

| EC50 (thymocytes; [2]) [µM] | Compound | other results |
| --- | --- | --- |
| > 10 | Cc1ccc(C(=O)C[n+]2ccccc2)cc1 [Compound 9, 1-(2-Oxo-2-p-tolyl-ethyl)-pyridinium bromide] | – |
| > 10 | Cc1ccc(C(=O)Cn2c(=O)ccc3ccccc32)cc1 [Compound 7, 1-(2-Oxo-2-p-tolyl-ethyl)-1H-quinolin-2-one] | – |
| 0.013 | CON=C(C[n+]1cccc2ccccc21)c1ccc(N2CCCC2)cc1 [Compound 11, 1-[2-Methoxyimino-2-(4-pyrrolidin-1-yl-phenyl)-ethyl]-quinolinium bromide] | – |
| > 10 | CON=C(Cn1c(=O)ccc2ccccc21)c1ccc(C)cc1 [Compound 6, 1-(2-Methoxyimino-2-p-tolyl-ethyl)-1H-quinolin-2-one] | – |
| – | Br.Cc1ccc(C(=O)Cn2c3c(sc2=N)CCCC3)cc1 [Compound 1, 2-(2-imino-4,5,6,7-tetrahydro-benzothiazol-3-yl)-1-p-tolyl-ethanone hydrobromide] | EC50 (thymocytes; [3]): 4.4 µM; apoptosis after γ-radiation (cells): decreased in apoptosis; mortality after γ-radiation [1]: reduced mortality |
| 5.1 | CON=C(C[n+]1ccccc1)c1ccc(C)cc1 [Compound 8, 1-(2-Methoxyimino-2-p-tolyl-ethyl)-pyridinium bromide] | – |
| > 10 | Cc1ccc(C(=O)C[n+]2cccc3ccccc32)cc1 [Compound 5, 1-(2-Oxo-2-p-tolyl-ethyl)-quinolinium bromide] | – |
| 0.28 | CON=C(C[n+]1ccccc1)c1ccc(N2CCCC2)cc1 [Compound 13, 1-[2-Methoxyimino-2-(4-pyrrolidin-1-yl-phenyl)-ethyl]-pyridinium bromide] | – |
| > 10 | CON=C(Cn1c(=O)ccc2ccccc21)c1ccc(N2CCCC2)cc1 [Compound 12, 1-[2-Methoxyimino-2-(4-pyrrolidin-1-yl-phenyl)-ethyl]-1H-quinolin-2-one] | – |
| 0.35 | CON=C(C[n+]1cccc2ccccc21)c1ccc(C)cc1 [Compound 4, 1-(2-Methoxyimino-2-p-tolyl-ethyl)-quinolinium bromide] | EC50 (thymocytes; [3]): 0.35 µM |
